Data as given in US11771697B2, “Small molecule degraders of polybromo-1 (PBRM1)” (DANA-FARBER CANCER INSTITUTE, INC., priority 2018, dated 2023).

Legend:
Assay type in all cases: cell-based
CRBN = biological target: T1, CRBN (Homo sapiens, UniProt Q96SW2); assay: Cellular CRBN binding assay (BRD4BD2-GFP/mCherry reporter, competition with 100 nM dBET6); conditions: GFP/RFP ratio, Flip-In 293 cells expressing BRD4BD2-GFP, 5 hours
T1 construct: Cells stably expressing BRD4BD2-GFP with mCherry reporter were seeded; endogenous in cells; host or cells: Flip-In 293 cells stably expressing BRD4BD2-eGFP-P2A-mCherry
Protocol: (§1) BRD4BD2 were subcloned into mammalian pcDNA5/FRT Vector (Ampicillin and Hygromycin B resistant) modified to contain MCS-eGFP-P2A-mCherry. Stable cell lines expressing eGFP-protein fusion and mCherry reporter were generated using the Flip-In™ 293 system. Plasmid (0.3 μg) and pOG44 (4.7 μg) DNA were preincubated in 100 of Opti-MEM I (Gibco™, Life Technologies) media containing 0.05 mg/ml Lipofectamine® 2000 (Invitrogen) for 20 minutes and added to Flip-In™ 293 cells containing 1.9 ml of DMEM media (Gibco™, Life Technologies) per well in a 6-well plate format (Falcon, 353046). Cells were propagated after 48 hours and transferred into a 10 cm^2 plate (Corning, 430165) in DMEM media containing 50 μg/ml of Hygromycin B (REF 10687010, Invitrogen) as a selection marker. Following a 2-3 passage cycle, FACS (FACSAria II, BD) was used to enrich for cells expressing eGFP and mCherry.
Cells stably expressing BRD4BD2-GFP with mCherry reporter were seeded at 30-50% confluency in 384 well plates (3764, Corning) with 50 μl FluoroBrite DMEM media (Gibco™, A18967) containing 10% FBS per well a day before compound treatment. Compounds and 100 nM dBET6 were dispensed using D300e Digital Dispenser (HP) normalized to 0.5% DMSO and incubated with cells for 5 hours. The assay plate was imaged immediately using Acumen eX3/HCl (TTPLabtech) High Content Imager with 488 nm and 561 nm lasers in […] grid per well format. The resulting images were analyzed using CellProfiler (Carpenter, et al., Genome Biol. 7:R100 PIMD 17076895 (2006)).

PBRM1 = biological target: T2, PBRM1 (Homo sapiens, UniProt Q86U86); assay: Kelly cell PBRM1 Western blot for cellular degradation of proteins; conditions: Kelly cells; relative to GAPDH, compared to DMSO
T2 construct: near complete degradation of endogenous PBRM1; endogenous in cells; host or cells: Kelly cells
Protocol: Kelly cells were treated with compounds as indicated and incubated for 6 or 24 hours. Samples were run on 4-20% or Any kD™ SDS-PAGE Gels (Bio-Rad), and transferred to PVDF membranes using the iBlot 2.0 dry blotting system (Thermo-Fisher Scientific). Membranes were blocked with LI-COR blocking solution (LI-COR), and incubated with primary antibodies overnight, followed by three washes in LI-COR blocking solution and incubation with secondary antibodies for one hour in the dark. After three final washes, the membranes were imaged on a LI-COR fluorescent imaging station (LI-COR). Antibodies used: anti-PBRM1 at 1:500 dilution (Cell Signaling, clone D3F70), anti-GAPDH at 1:10,000 dilution (G8795, Sigma), IRDye 680 Donkey anti-mouse at 1:10,000 dilution (926-68072, LI-COR).

PBRM1 PB5 [1] = biological target: T3, PBRM1 PB5 (Homo sapiens, UniProt Q86U86); assay: PBRM1 PB5 GFP/RFP degradation assay (flow cytometry reporter assay); conditions: 5 hours, FIG. 3A-3F
Protocol: as §1, with “PBRM1 PB5 was” for “BRD4BD2 were”, “[…])” for “μg)”, “Lipofectamine” for “Lipofectamine®”
Cells were seeded at 30-50% confluency in either 24, 48 or 96 well plates (3524, 3548, 3596, respectively, Costar) a day before compound treatment. Titrated compounds were incubated with cells for 5 hours following trypsinization and resuspension in DMEM media, transferred into 96-well plates (353910, Falcon) and analyzed by flow cytometer (guava easyCyte HT, Millipore). Signal from minimal 3000 events per well was acquired and the eGFP and mCherry florescence were monitored. Data was analyzed using FlowJo® (FlowJo, LLC). Forward and side scatter outliers, frequently associated with cell debris, were removed leaving >90% of total cells, followed by removal of eGFP and mCherry signal outliers, leaving 88-90% of total cells creating the set used for quantification. The eGFP protein abundance relative to mCherry was then quantified as a ten-fold amplified ratio for each individual cell using the formula: 10×eGFP/mCherry. The median of the ratio was then calculated per set, normalized to the median of the DMSO ratio.
The assay described in Example 16 was repeated, using compounds 3-8 and the control (“negative compound” (G)).

PBRM1 PB5 [2] = biological target: T3, PBRM1 PB5; assay: Imaging based PBRM1 PB5 GFP/RFP degradation assay; conditions: after 3 h of incubation; for degradation of PBRM1 PB5: FIG. 3H-3J
Protocol: Cells stably expressing PBRM1 PB5 in Example 16, were seeded at 30-50% confluency in 384 well plates (3764, Corning) with 50 μL FluoroBrite DMEM media (Gibco, A18967) containing 10% FBS per well a day before compound treatment. […] The assay plate was imaged immediately using Acumen eX3/HCl (TTPLabtech) High Content Imager with 488 nm and 561 nm lasers in […] grid per well format. The resulting images were analyzed using CellProfiler (Carpenter et al., Genome Biol. 7R100 PIMD 17076895 (2006)). A series of image analysis steps (‘image analysis pipeline’) was constructed.
The CellProfiler pipeline steps were as follows. First, the red and green channels were aligned and cropped to target the middle of each well (to avoid analysis of heavily clumped cells at the edges), and a background illumination function was calculated for both red and green channels of each well individually and subtracted to correct for illumination variations across the 384-well plate from various sources of error. An additional step was then applied to the green channel to suppress the analysis of large auto fluorescent artifacts and enhance the analysis of cell specific fluorescence by way of selecting for objects under a given size, 30 A.U., and with a given shape, speckles. Cells that were mCherry-positive were then identified in the red channel filtering for objects between 8-60 pixels in diameter and using intensity to distinguish between clumped objects. The green channel was then segmented into GFP positive and negative areas and objects were labeled as GFP positive if at least 40% of it overlapped with a GFP positive area. The fraction of GFP-positive cells/mCherry-positive cells (GFP/mCherry ratio) in each well was then calculated, and the green and red images were rescaled for visualization. The GFP/mCherry ratio was normalized to DMSO visualized in GraphPad Prism 7.

## Nc1nnc(-c2ccccc2O)cc1N1CCN(C(=O)CCOCCNc2cccc3c2CN(C2CCC(=O)NC2=O)C3=O)CC1 (centres unmarked) [Compound 1, 3-(4-((2-(3-(4-(3-amino-6-(2-hydroxyphenyl)pyridazin-4-yl)piperazin-1-yl)-3-oxopropoxy)ethyl)amino)-1-oxoisoindolin-2-yl)piperidine-2,6-dione]
CRBN
  IC50: 30500 nM
PBRM1
  degradation of PBRM1 (Western blot, FIG. 4): degradation of PBRM1

## Nc1nnc(-c2ccccc2O)cc1N1CCN(C(=O)CCOCCOCCNc2cccc3c2CN(C2CCC(=O)NC2=O)C3=O)CC1 (centres unmarked) [Compound 2, 3-(4-((2-(2-(3-(4-(3-amino-6-(2-hydroxyphenyl)pyridazin-4-yl)piperazin-1-yl)-3-oxopropoxy)ethoxy)ethyl)amino)-1-oxoisoindolin-2-yl)piperidine-2,6-dione]
CRBN
  IC50: 20900 nM

## Nc1nnc(-c2ccccc2O)cc1N1CCN(C(=O)CCCCCCCCOc2cccc3c2C(=O)N(C2CCC(=O)NC2=O)C3=O)CC1 (centres unmarked) [Compound 3, 4-((9-(4-(3-amino-6-(2-hydroxyphenyl)pyridazin-4-yl)piperazin-1-yl)-9-oxononyl)oxy)-2-(2,6-dioxopiperidin-3-yl)isoindoline-1,3-dione]
PBRM1 PB5 [1]
  DC50: 2.86 nM
CRBN
  IC50: 162 nM

## Nc1nnc(-c2ccccc2O)cc1N1CCN(C(=O)COc2cccc3c2C(=O)N(C2CCC(=O)NC2=O)C3=O)CC1 (centres unmarked) [Compound 4, 4-(2-(4-(3-amino-6-(2-hydroxyphenyl)pyridazin-4-yl)piperazin-1-yl)-2-oxoethoxy)-2-(2,6-dioxopiperidin-3-yl)isoindoline-1,3-dione]
PBRM1 PB5 [1]
  DC50: 21.8 nM

## Nc1nnc(-c2ccccc2O)cc1N1CCN(C(=O)CCCCCCCCCCOc2cccc3c2C(=O)N(C2CCC(=O)NC2=O)C3=O)CC1 (centres unmarked) [Compound 5, 4-((11-(4-(3-amino-6-(2-hydroxyphenyl)pyridazin-4-yl)piperazin-1-yl)-11-oxoundecyl)oxy)-2-(2,6-dioxopiperidin-3-yl)isoindoline-1,3-dione]
PBRM1 PB5 [1]
  DC50: 3.64 nM

## Nc1nnc(-c2ccccc2O)cc1N1CCN(C(=O)CCCCCCCOc2cccc3c2C(=O)N(C2CCC(=O)NC2=O)C3=O)CC1 (centres unmarked) [Compound 6, 4-((8-(4-(3-amino-6-(2-hydroxyphenyl)pyridazin-4-yl)piperazin-1-yl)-8-oxooctyl)oxy)-2-(2,6-dioxopiperidin-3-yl)isoindoline-1,3-dione]
PBRM1 PB5 [1]
  DC50: 6.42 nM

## Nc1nnc(-c2ccccc2O)cc1N1CCN(C(=O)CCCCCCOc2cccc3c2C(=O)N(C2CCC(=O)NC2=O)C3=O)CC1 (centres unmarked) [Compound 7, 4-((7-(4-(3-amino-6-(2-hydroxyphenyl)pyridazin-4-yl)piperazin-1-yl)-7-oxoheptyl)oxy)-2-(2,6-dioxopiperidin-3-yl)isoindoline-1,3-dione]
PBRM1 PB5 [1]
  DC50: 6.35 nM

## Nc1nnc(-c2ccccc2O)cc1N1CCN(C(=O)CCCCCCCCCOc2cccc3c2C(=O)N(C2CCC(=O)NC2=O)C3=O)CC1 (centres unmarked) [Compound 8, 4-((10-(4-(3-amino-6-(2-hydroxyphenyl)pyridazin-4-yl)piperazin-1-yl)-10-oxodecyl)oxy)-2-(2,6-dioxopiperidin-3-yl)isoindoline-1,3-dione]
PBRM1 PB5 [1]
  DC50: 3.9 nM

## Cc1ncsc1-c1ccc([C@H](C)NC(=O)[C@@H]2C[C@@H](O)CN2C(=O)[C@@H](NC(=O)CCCCCCCCN2CCN(c3cc(-c4ccccc4O)nnc3N)CC2)C(C)(C)C)cc1 [Compound 11, (2S,4R)-1-((S)-2-(9-(4-(3-amino-6-(2-hydroxyphenyl)pyridazin-4-yl)piperazin-1-yl)nonanamido)-3,3-dimethylbutanoyl)-4-hydroxy-N—((S)-1-(4-(4-methylthiazol-5-yl)phenyl)ethyl)pyrrolidine-2-carboxamide]
PBRM1 PB5 [2]
  degradation of PBRM1 PB5: less effective

## Cc1ncsc1-c1ccc([C@H](C)NC(=O)[C@@H]2C[C@@H](O)CN2C(=O)[C@@H](NC(=O)CCCCCCCC(=O)N2CCN(c3cc(-c4ccccc4O)nnc3N)CC2)C(C)(C)C)cc1 [Compound 12, (2S,4R)-1-((S)-2-(9-(4-(3-Amino-6-(2-hydroxyphenyl)pyridazin-4-yl)piperazin-1-yl)-9-oxononanamido)-3,3-dimethylbutanoyl)-4-hydroxy-N—((S)-1-(4-(4-methylthiazol-5-yl)phenyl)ethyl)pyrrolidine-2-carboxamide]
PBRM1 PB5 [2]
  degradation of PBRM1 PB5: potent degradation

## Nc1nnc(-c2ccccc2O)cc1N1CCN(CCCCCCNC(=O)COc2cccc3c2C(=O)N(C2CCC(=O)NC2=O)C3=O)CC1 (centres unmarked) [Compound 13, N-(6-(4-(3-amino-6-(2-hydroxyphenyl)pyridazin-4-yl)piperazin-1-yl)hexyl)-2-((2-(2,6-dioxopiperidin-3-yl)-1,3-dioxoisoindolin-4-yl)oxy)acetamide]
PBRM1 PB5 [2]
  degradation of PBRM1 PB5: potent degradation
PBRM1 PB5 [2]; high compound concentration
  hook effect: hook effect
